Test results reported in patent publication US20190030166A1, “PERCUTANEOUSLY ABSORBABLE COMPOSITION CONTROLLED IN RELEASE OF WATER-SOLUBLE EFFECTIVE INGREDIENT” (NISSAN CHEMICAL CORPORATION, priority 2016, published 2019).
Peptide text beside a SMILES is read from it.

assay: Oil solubilization of Peptide A or B using citral; type: physicochemical; conditions: 2 mg peptide, 0.1 mL citral, 0.1 mL ethanol, 80° C. (Peptide A 3 hours, Peptide B 4 hours); 50 μL ethanol solution + 150 μL IPM
Procedure: The oil solubilization experiment of Peptide A is as follows.
Preparation conditions under heating at 80° C. are as follows.
Preparation conditions under stirring at room temperature are as follows. To 1 mL of a screw-top sample tube were added 2 mg of Peptide B, 0.1 mL of citral and 0.1 mL of ethanol, and the mixture was stirred at room temperature for 22 hours to obtain an ethanol solution.

Solution state in IPM | SMILES
pale yellow peptide IPM solution | CSCC[C@H](NC(=O)[C@@H](N)CO)C(=O)N[C@@H](CCCCN)C(=O)N[C@H](C(=O)N[C@H](C(=O)N[C@H](C(=O)N[C@@H](C)C(=O)N[C@@H](Cc1ccccc1)C(=O)N[C@@H](CC(N)=O)C(=O)N[C@@H](CCC(N)=O)C(=O)N[C@@H](Cc1ccccc1)C(=O)NCC(=O)N1CCC[C@H]1C(=O)O)C(C)C)[C@@H](C)O)C(C)C [Peptide B] (H-SMKVTVAFNQFGP-OH; N-terminus and C-terminus assumed)
pale yellow peptide IPM solution | CSCC[C@H](NC(=O)[C@H](CC(C)C)NC(=O)[C@@H](NC(=O)[C@H](Cc1ccccc1)NC(=O)CNC(=O)[C@@H](NC(=O)[C@H](CC(C)C)NC(=O)[C@H](CCCCN)NC(=O)[C@H](C)NC(=O)[C@H](Cc1ccccc1)NC(=O)[C@@H](N)CCC(N)=O)[C@@H](C)O)[C@@H](C)O)C(=O)NCC(=O)O [Peptide A] (H-QFAKLTGFTLMG-OH; N-terminus and C-terminus assumed)

same assay, conditions: 2 mg peptide, 0.1 mL citral, 0.1 mL ethanol, stirred at room temperature 22 hours

State of ethanol solution | SMILES
yellow gel-like substance | CSCC[C@H](NC(=O)[C@@H](N)CO)C(=O)N[C@@H](CCCCN)C(=O)N[C@H](C(=O)N[C@H](C(=O)N[C@H](C(=O)N[C@@H](C)C(=O)N[C@@H](Cc1ccccc1)C(=O)N[C@@H](CC(N)=O)C(=O)N[C@@H](CCC(N)=O)C(=O)N[C@@H](Cc1ccccc1)C(=O)NCC(=O)N1CCC[C@H]1C(=O)O)C(C)C)[C@@H](C)O)C(C)C [Peptide B] (H-SMKVTVAFNQFGP-OH; N-terminus and C-terminus assumed)

assay: not given; conditions: not given
Procedure: Solubilization of the complex with citronellal or citral in ethanol was examined while keeping the amino acid as crystal. The amino acids are different in the crystalline state in the commercial products depending on the kind thereof, so that there were fear that the results might cause fluctuation. Thus, an operation for enlarging the surface in contact with the liquid was added by making the difference due to crystals small as well as making the surface area as much as possible. Specifically, the crystals of the amino acids were ground in a mortar and then sieved through a 100 μm sieve to provide powders, which were used in the present test.
The amount and heating time of citronellal or citral necessary for solubilizing the obtained complex in ethanol, and the dispersed state of the obtained complex in ethanol was confirmed.

SMILES | Amount of citral necessary for solubilizing in ethanol | Heating time necessary for solubilizing in ethanol | Amount of citronellal necessary for solubilizing in ethanol
N[C@@H](Cc1c[nH]cn1)C(=O)O [Histidine, L-histidine] | – | 17.5 h | 700 mg
NCCCC[C@H](N)C(=O)O [Lysine, L-(+) lysine] | – | 0.5 h | 700 mg
N[C@@H](Cc1c[nH]c2ccccc12)C(=O)O [Tryptophan, L-tryptophan] | – | 24 h | 700 mg

Further lines, results first:

Amount of citral necessary for solubilizing in ethanol | Heating time necessary for solubilizing in ethanol | Amount of citronellal necessary for solubilizing in ethanol | SMILES
700 mg | 0.25 h | – | CC[C@H](C)[C@H](N)C(=O)O [Isoleucine, L(+)-isoleucine]
– | 0.33 h | 700 mg | N[C@@H](CS)C(=O)O [L-cysteine]
700 mg | 24 h | – | NC(=O)CC[C@H](N)C(=O)O [Glutamine, L(+)-glutamine]
700 mg | 5 h | – | C[C@H](N)C(=O)O [L-Alanine, L-alanine]
700 mg | 3 h | – | CC(C)[C@H](N)C(=O)O [Valine, L-valine]
